This note sets out measurements from PMC5789847, “Bismuth antimicrobial drugs serve as broad-spectrum metallo-β-lactamase inhibitors” (Nature Communications, 2018).

The target in one assay is NDM-1 (Klebsiella pneumoniae, UniProt C7C422). Type of assay: cell-based. Further details: endogenous in cells; host or cells: E. coli clinical isolate NDM-HK. The note with it: NDM-HK cultured with 100 µM compound; control 50.1 °C. On the procedure:
The cellular thermal shift assay was performed according to a standard method. Clinical isolate of NDM-1-positive E. coli (NDM-HK) was cultured overnight in the absence or presence of 100 µM Bi(III) compounds, i.e., CBS, Bi(NAC)3, Bi(NIT)3. The bacterial pellets were harvested and washed with PBS for 4 times. The cell suspensions were aliquoted into PCR tubes and heat treatment was performed at the designated temperature ranging from 40 °C to 70 °C for 3 min in a 96-well thermal cycler. The tubes were cooled immediately at room temperature for another 3 min after heating and the heating procedures were repeated for three cycles. For the cell lysis, the samples were frozen–thawed for two cycles in liquid nitrogen and thermal cycler set at 25 °C. The samples were vortexed gently after each cycle and were centrifuged at 20,000 × g to obtain the supernatant when the second cycle was finished. All the samples were subjected to western blot analysis for detection and quantification of NDM-1 content as described above.

Another assay addresses NDM-1-C208A (Klebsiella pneumoniae, UniProt C7C422, C208A). In words: Residual enzyme activity of NDM-1 variant with CBS at IC50. The assay is classed as biochemical. The note with it: CBS at IC50 concentration, compared with WT NDM-1.
In another assay the test system is NDM-HK. Briefly: Time kill assay. Type of assay: cell-based, E. coli. The note with it: MER 24 μg mL^-1 + CBS 64 μg mL^-1, 24 h, exponential phase. Here is the method:
Time kill assay was used to further explore the synergy between MER and Bi(III) compounds. In a typical assay, NDM-HK was cultured overnight and diluted 1:250 into LB broth at 37 °C for 3 h to reach log phase. The initial bacterial density was adjusted to ~10^7 CFU mL^−1 and then exposed to MER, Bi(III) compounds either alone or in combination. LB broth with no drugs served as a control. Aliquots of bacterial suspension were withdrawn at different time intervals (0, 1, 2, 4, 6, 8, and 24 h) for inspection of bacterial viability by agar plating. The concentrations of the drugs used in the test are 24 µg mL^−1 for MER, 64 µg mL^−1 for CBS, and 32 µg mL^−1 for Bi(NAC)3. Data from three independent experiments were averaged and plotted as log10 CFU mL^−1 vs. time (h) for each time point over 24 h. All assays were triplicated and performed three times on different days.

Assay [1] concerns NDM-K. pneumonia (NDM-1^+). Briefly: Microdilution MIC/MBC and checkerboard assay. The assay is classed as cell-based, Klebsiella pneumonia.
A further assay has as its system NDM-Rosetta OX. In words: Microdilution MIC assay. The note with it: NDM-Rosetta OX. The assay is classed as cell-based, E. coli. Here is the method:
For the test of NDM-Rosetta OX, the growth condition briefly goes as follow. Overnight culture of NDM-Rosetta was 1000-fold diluted into fresh LB medium and regrew to OD ~0.6. The overexpression of NDM-1 was induced by addition of 1 mM isopropyl β-D-1-thiogalactopyranoside (IPTG) for 4 h at 37 °C. The following susceptibility test was performed as described in the Microdilution MIC and MBC assay section in the methodology by using the resulting bacterial pellets with the supplementation of 200 µM IPTG.
(§1) Other procedures were kept strictly the same.

The next assay concerns E. coli BL21(DE3). In words: Microdilution MIC assay. The assay is classed as cell-based.
Source text: as §1

The test system of the next assay is E. coli ATCC 25922. Briefly: Microdilution MIC assay. Type of assay: cell-based.
Source text: as §1

For another assay, the system named is E. coli Rosetta(DE3). Briefly: Microdilution MIC assay. Type of assay: cell-based.
Source text: as §1

Chain of NDM-1-C208A (C7C422 29-270 C208A): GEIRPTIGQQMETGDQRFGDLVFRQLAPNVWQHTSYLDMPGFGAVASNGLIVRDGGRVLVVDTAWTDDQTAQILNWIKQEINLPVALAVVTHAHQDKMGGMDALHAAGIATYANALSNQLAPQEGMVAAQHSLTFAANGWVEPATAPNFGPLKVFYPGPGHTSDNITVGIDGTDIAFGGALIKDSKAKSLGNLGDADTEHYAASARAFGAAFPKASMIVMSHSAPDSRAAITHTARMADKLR
Chain of NDM-1 (C7C422 29-270 limits assumed): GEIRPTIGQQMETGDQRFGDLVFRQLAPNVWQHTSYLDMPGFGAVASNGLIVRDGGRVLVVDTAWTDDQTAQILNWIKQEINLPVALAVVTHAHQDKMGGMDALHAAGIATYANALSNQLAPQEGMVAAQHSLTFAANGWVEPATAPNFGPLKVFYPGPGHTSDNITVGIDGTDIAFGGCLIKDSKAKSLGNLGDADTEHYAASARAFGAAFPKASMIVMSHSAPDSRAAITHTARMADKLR

Consider colloidal bismuth subcitrate [CBS], for which the “NDM-1 melting temperature, treated group” value on NDM-1 came out at 48 °C. In addition, the “inhibitory effect on NDM-1-C208A” value at NDM-1-C208A is “much reduced inhibitory effect”. Moreover, in the assay on NDM-HK, the “lowering of NDM-HK population in time kill curves” value is recorded as “more than 1000 fold”. Besides, in assay [1] (NDM-K. pneumonia (NDM-KP)), the “MBC of MER in combination with compound at 32 µg mL^-1” value stood at 8 µg/mL and the “MIC of MER in combination with compound at 32 µg mL^-1” value came out at 4 µg/mL. In assay [1] (NDM-KP), the “MBC of Bi(III) compound alone” value was over 256 µg/mL and the “MIC of Bi(III) compound alone” value was over 256 µg/mL. In addition, the FICI in assay [1] (NDM-KP, MER + compound, 256 µg mL^-1 set as MIC of Bi(III)) turned out to be 0.375. In the assay with NDM-Rosetta OX, the “MIC of MER in combination with CBS at 16 µg mL-1” value (“MIC of MER … at 16 µg mL-1” below) turned out to be 128 µg/mL, the “MIC of MER in combination with CBS at 32 µg mL-1” value (shortened to “MIC of MER … at 32 µg mL-1”) was 128 µg/mL and the “MIC of MER in combination with CBS at 256 µg mL-1” value (“MIC of MER … at 256 µg mL-1” for short) is 32 µg/mL. Further, in the assay on E. coli BL21(DE3), the “MIC of MER … at 16 µg mL-1” value worked out at 0.03 µg/mL, the “MIC of MER … at 32 µg mL-1” value was 0.03 µg/mL and the “MIC of MER … at 256 µg mL-1” value came to 0.03 µg/mL. Further, in the assay on E. coli ATCC 25922, the “MIC of MER … at 16 µg mL-1” value stood at 0.03 µg/mL, the “MIC of MER … at 32 µg mL-1” value amounted to 0.03 µg/mL and the “MIC of MER … at 256 µg mL-1” value was found to be 0.03 µg/mL. For the same substance, in the assay with E. coli Rosetta(DE3), the “MIC of MER … at 16 µg mL-1” value worked out at 0.03 µg/mL, the “MIC of MER … at 32 µg mL-1” value was found to be 0.03 µg/mL and the “MIC of MER … at 256 µg mL-1” value was found to be 0.03 µg/mL.
